Where a name gives a salt, the structure may show the parent alone.

T1 sequence (P49841 whole entry): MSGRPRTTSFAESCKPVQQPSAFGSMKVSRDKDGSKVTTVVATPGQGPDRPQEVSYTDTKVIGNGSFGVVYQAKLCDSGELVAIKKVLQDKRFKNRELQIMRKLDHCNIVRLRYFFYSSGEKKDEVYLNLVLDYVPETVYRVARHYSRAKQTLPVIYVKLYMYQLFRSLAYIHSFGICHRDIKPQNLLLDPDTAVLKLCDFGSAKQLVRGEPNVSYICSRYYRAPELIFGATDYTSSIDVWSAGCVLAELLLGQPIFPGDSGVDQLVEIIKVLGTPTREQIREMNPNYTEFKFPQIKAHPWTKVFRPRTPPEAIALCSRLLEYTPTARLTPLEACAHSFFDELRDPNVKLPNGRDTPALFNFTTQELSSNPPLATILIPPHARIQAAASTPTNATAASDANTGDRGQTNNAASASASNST

This assay has as its target T1, recombinant human GSK3β (Homo sapiens, UniProt P49841).
T1 construct: purchased Dundee University, UK
Put plainly: GSK3β Scintillation Proximity Assay (ATP competition). The note with it: SPA, 1 μM ATP, 1 μM biotinylated peptide substrate; Ki calculated with Km of ATP 20 μM. The class given is biochemical. As to the method: Determination of ATP Competition in Scintillation Proximit), GSK3β Assay.
GSK3β Scintillation Proximity Assay.
The competition experiments were carried out in duplicate with 10 different concentrations of the inhibitors in clear-bottom microtiter plates (Wallac, Finland). A biotinylated peptide substrate, Biotin-Ala-Ala-Glu-Glu-Leu-Asp-Ser-Arg-Ala-Gly-Ser(PO3H2)-Pro-Gln-Leu (AstraZeneca, Lund), was added at a final concentration of 1 μM in an assay buffer containing 1 mU recombinant human GSK3β (Dundee University, UK), 12 mM morpholinepropanesulfonic acid (MOPS), pH 7.0, 0.3 mM EDTA, 0.01% β-mercaptorethanol, 0.004% Brij 35 (a […] detergent), 0.5% glycerol and 0.5 μg BSA/25 μl. The reaction was initiated by the addition of 0.04 μCi [γ-^33P]ATP (Amersham, UK) and unlabelled ATP at a final concentration of 1 μM and assay volume of 25 μl. After incubation for 20 minutes at room temperature, each reaction was terminated by the addition of 25 μl stop solution containing 5 mM EDTA, 50 μM ATP, 0.1% Triton X-100 and 0.25 mg streptavidin coated Scintillation Proximity Assay (SPA) beads (Amersham, UK). After 6 hours the radioactivity was determined in a liquid scintillation counter (1450 MicroBeta Trilux, Wallac). The inhibition curves were analysed by non-linear regression using GraphPad Prism, USA. The Km value of ATP for GSK3β, used to calculate the inhibition constants (Ki) of the various compounds, was 20 μM.
A word on the Ki: it is the equilibrium dissociation constant of an inhibitor or competing ligand from its target. Turning to `COCCCNC(=O)c1c(Br)cnc2[nH]c(-c3ccc(CN4CCOCC4)cc3)nc12` [Example 13, 6-Bromo-S-(3-methoxypropyl)-2-[4-(morpholin-4-ylmethyl)phenyl]-3H-imidazo[4,5-b]pyridine-7-carboxamide], the Ki was 390 nM. For `COCCCNC(=O)c1c(Cl)cnc2[nH]c(-c3ccc(CN4CCOCC4)cc3)nc12` [Example 14, 6-Chloro-N-(3-methoxypropyl)-2-[4-(morpholin-4-ylmethyl)phenyl]-3H-imidazo[4,5-b]pyridine-7-carboxamide], the Ki is 1400 nM. The value for `COCCCNC(=O)c1c(F)cnc2[nH]c(-c3ccc(CN4CCOCC4)cc3)nc12` [Example 21, 6-Fluoro-N-(3-methoxypropyl)-2-[4-(morpholin-4-ylmethyl)phenyl]-3H-imidazo[4,5-b]pyridine-7-carboxamide hydrochloride] was 779 nM.
